Values after ≈ are worked out from the molar mass of the structure shown. Where two headings read alike, the source gives them in different places.
Columns and labels:
[1] = system: K. pneumoniae BAA-2146 (NDM-1, FQ-R); assay: MIC on K. pneumoniae (Example 5); assay type: cell-based; details: Klebsiella pneumoniae, BAA2146, read-out: MIC K. pneumoniae BAA-2146 (NDM-1, FQ-R)
Method: MIC Values for all compounds were measured against a selection of bacterial strains. The MICs of 4-oxoquinolizines against a selection of Gram-negative and Gram-positive bacterial strains are shown in Table 13 in comparison with known antibiotics.

B. anthracis = assay: microbe, parasite or virus in culture; assay type: cell-based; details: Bacillus anthracis, read-out: MIC B. anthracis
F. tularensis = assay: microbe, parasite or virus in culture; assay type: cell-based; details: Francisella tularensis, read-out: MIC F. tularensis
B. abortus = assay: microbe, parasite or virus in culture; assay type: cell-based; details: Brucella abortus, read-out: MIC B. abortus
B. pseudomallei = assay: microbe, parasite or virus in culture; assay type: cell-based; details: Burkholderia pseudomallei, read-out: MIC B. pseudomallei
B. thailandensis = assay: microbe, parasite or virus in culture; assay type: cell-based, Burkholderia thailandensis; details: Burkholderia thailandensis, read-out: MIC90 B. thailandensis
S. aureus 101 = assay: MIC, standard panel of Gram-positive and Gram-negative bacteria (CLSI); assay type: cell-based, Staphylococcus aureus; details: Staphylococcus aureus, 101; CAMHB; read-out: MIC S. aureus 101
E. faecium 19434 = assay: as above; assay type: cell-based, Enterococcus faecium; details: Enterococcus faecium, 19434; CAMHB; read-out: MIC E. faecium 19434
E. coli 25922 = assay: as above; assay type: cell-based, Escherichia coli; details: Escherichia coli, 25922; CAMHB; read-out: MIC E. coli 25922
A. Baumanii OXA-51 = assay: MIC, panel of quinolone-resistant strains (CLSI); assay type: cell-based; details: Acinetobacter baumannii; CIP R, ESBL
E. coli CTX-M-15 = assay: MIC, panel of quinolone-resistant strains (CLSI); assay type: cell-based; details: Escherichia coli, CTXM15; CIP R, ESBL
E. coli 2906 = assay: MIC, panel of quinolone-resistant strains (CLSI); assay type: cell-based; details: Escherichia coli, CIP R
Klebsiella ssp KPC-3 = assay: MIC, panel of quinolone-resistant strains (CLSI); assay type: cell-based, Klebsiella spp; details: KPC3, CIP R, ESBL
Pseudomonas ssp PER-1 = assay: MIC, panel of quinolone-resistant strains (CLSI); assay type: cell-based, Pseudomonas spp; details: PER1, CIP R, ESBL
P. aeruginosa 1388-3-02 = assay: MIC, panel of quinolone-resistant strains (CLSI); assay type: cell-based; details: Pseudomonas aeruginosa, 1388302; CIP R, POL R
P. aeruginosa 143-3-03 = assay: MIC, panel of quinolone-resistant strains (CLSI); assay type: cell-based; details: Pseudomonas aeruginosa, 143303; CIP I, POL R
S. pneumoniae 1027 = assay: MIC, panel of quinolone-resistant strains (CLSI); assay type: cell-based; details: Streptococcus pneumoniae, LEV R
A. baumannii J2 [2] = assay: MIC determination for Acinetobacter strains (Example 3); assay type: cell-based; details: LEV R, CIP R
[3] = system: Acinetobacter spp. H064200250; assay: as above; assay type: cell-based, Acinetobacter sp.; details: LEV R, CIP R, MRP R, IMP I
A. baumannii A390 [4] = assay: as above; assay type: cell-based; details: LEV R, CIP R, MRP R, IPM I, AMK R, TET I
A. baumannii A472 [5] = assay: as above; assay type: cell-based; details: LEV R, CIP R, MRP I, IMP I, AMK R, TET R
A. baumannii A473 [6] = assay: as above; assay type: cell-based; details: LEV R, CIP R, MRP R, IMP R, AMK R, TET R
[7] = system: resistant strains of A. baumannii and one strain of Acinetobacter sp.; assay: MIC without and with sub-inhibitory polymyxin B, whole panel / MIC ranges (Example 4; also strains not listed separately); assay type: cell-based; details: Acinetobacter baumannii
A. baumannii J2 [8] = assay: MIC without and with sub-inhibitory polymyxin B (Example 4); assay type: cell-based, Acinetobacter baumannii; details: Acinetobacter baumannii, J2, A. baumannii J2; without polymyxin B; 1st experiment; read-out: MIC without PB
[9] = system: Acinetobacter sp. (H064200250); assay: as above; assay type: cell-based; details: Acinetobacter, without polymyxin B, read-out: MIC without PB
A. baumannii A329 = assay: as above; assay type: cell-based, Acinetobacter baumannii; details: Acinetobacter baumannii, A329, A. baumannii A329; without polymyxin B; 2nd experiment; visual reading; read-out: MIC without PB
A. baumannii A390 [10] = assay: as above; assay type: cell-based, Acinetobacter baumannii; details: Acinetobacter baumannii, A390, A. baumannii A390, without polymyxin B, read-out: MIC without PB
A. baumannii A401 = assay: as above; assay type: cell-based, Acinetobacter baumannii; details: Acinetobacter baumannii, A401, A baumannii A 401; without polymyxin B; 2nd experiment; visual reading; read-out: MIC without PB
A. baumannii A472 [11] = assay: as above; assay type: cell-based, Acinetobacter baumannii; details: Acinetobacter baumannii, A472, A. baumannii A472; without polymyxin B; 1st experiment; read-out: MIC without PB
A. baumannii A473 [12] = assay: as above; assay type: cell-based, Acinetobacter baumannii; details: Acinetobacter baumannii, A473, A. baumannii A473, without polymyxin B, read-out: MIC without PB
A. baumannii A489 = assay: as above; assay type: cell-based, Acinetobacter baumannii; details: Acinetobacter baumannii, A489, A. baumannii A489; without polymyxin B; 2nd experiment; visual reading; read-out: MIC without PB
A. baumannii ATCC 19606 = assay: Preliminary MBC without and with sub-inhibitory polymyxin B (Example 4); assay type: cell-based, Acinetobacter baumannii; details: Acinetobacter baumannii, ATCC19606, read-out: MBC without PB
[13] = system: Acinetobacter sp. (H064200250); assay: as above; assay type: cell-based; details: Acinetobacter, without polymyxin B, preliminary MBC, read-out: MBC without PB
How it was run: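 Plates were incubated for 18-20 hours at 37° C. MBC was taken as the lowest concentration giving colony growth ca. 90% below the positive control, typically where only single colonies or none appeared.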

E. coli IMP = assay: microbe, parasite or virus in culture; details: Escherichia coli, read-out: MIC E. coli IMP
[14] = system: GN10 Pseudomonas aeruginosa; assay: Pre-chequerboard MIC, broth microdilution (Example 6); assay type: cell-based; details: ATCC 27853 / GN10, ATCC 27853, antibiotic susceptible
From the text: (§1) A chequerboard technique was used to identify possible synergistic or antagonistic interactions between the 4-oxoquinolizines compounds, levofloxacin and polymyxin B. Levofloxacin was included as a control. […] Final dilutions were made in Mueller-Hinton broth, the specific test medium used for MIC determinations according to CLSI guidelines (CLSI. Methods for Dilution Antimicrobial Susceptibility Tests for Bacteria That Grow Aerobically; Approved Standard-Eighth Edition (2009). CLSI Document M07-A8. CLSI, Wayne, Pa. 19087-1898, USA.). The test medium used was a cation-adjusted Mueller-Hinton Broth II (Becton Dickinson UK Ltd., Oxford Science Park, Oxford, UK, OX4 4DQ).
(§2) The compounds 2, 33 and 35, as well as levofloxacin were tested in combination with polymyxin B on the following isolates: GN31 Acinetobacter baumannii—antibiotic susceptible clinical isolate, GN52 Acinetobacter baumannii—levofloxacin resistant clinical isolate, GN56 Acinetobacter baumannii—levofloxacin resistant clinical isolate, GN48 Klebsiella pneumoniae—NCTC 13443—NDM-1-metallo-R-lactamase and GN10 Pseudomonas aeruginosa—ATCC 27853—antibiotic susceptible reference isolate. All isolates are from the collection maintained at Quotient Bioresearch Ltd., Cambridge, UK.
(§3) The MIC values for the compounds and polymyxin B and levofloxacin were determined by broth microdilution following CLSI guidelines, and the MICs of agents in combination were determined as described by Pillai et.al (Pillai S K, Moellering R C Jr, Eliopoulis G M; Antimicrobial Combinations in Antibiotics in Laboratory Medicine 5th Edition (V. Lorian Ed) (2005) p 365-440). Initial MIC results were used to determine the microtiter plate patterns for the chequerboards. A suitable doubling dilution concentration range was selected such that the combination antibiotic range was at least two concentrations above and four concentrations below the MIC for each isolate. A fixed range of 0.008 to 8 mg/L was tested for polymyxin B except in the case of A. baumannii GN31 where a range of 0.004 to 4 mg/L was tested when in combination with the compounds 2, 33 and 35 as well as levofloxacin.

[15] = system: GN31 Acinetobacter baumannii; assay: as above; assay type: cell-based; details: antibiotic susceptible clinical isolate
From the text: as §1, §2, §3

[16] = system: GN48 Klebsiella pneumoniae; assay: as above; assay type: cell-based; details: GN48 / NCTC 13443, NCTC 13443, NDM-1
From the text: as §1, §2, §3

[17] = system: GN52 Acinetobacter baumannii; assay: as above; assay type: cell-based; details: levofloxacin resistant clinical isolate
From the text: as §1, §2, §3

[18] = system: GN56 Acinetobacter baumannii; assay: as above; assay type: cell-based; details: levofloxacin resistant clinical isolate
From the text: as §1, §2, §3

[19] = Acinetobacter spp. H064200250, 1st experiment

Cc1c(-c2cc(F)c(N)cc2F)ccn2c(=O)c(C(=O)[O-])cc(C3CC3)c12.[K+] [Compound 2 K salt, Potassium 8-(4-amino-2,5-difluoro-phenyl)-1-cyclopropyl-9-methyl-4-oxo-4H-quinolizine-3-carboxylate]
MIC [1]: > 8 µg/mL

Cc1c(-c2ccc(CN)cc2)ccn2c(=O)c(C(=O)O)cc(C3CC3)c12 [Compound 5, 8-(4-aminomethyl-phenyl)-1-cyclopropyl-9-methyl-4-oxo-quinolizine-3-carboxylic acid]
MIC (B. anthracis): 0.125 µg/mL (≈ 0.359 µM)
MIC (F. tularensis): 0.125 µg/mL (≈ 0.359 µM)
MIC (B. abortus): 1 µg/mL (≈ 2.87 µM)
MIC (B. pseudomallei): 2 µg/mL (≈ 5.74 µM)
MIC90 (B. thailandensis): 0.39 µg/mL (≈ 1.12 µM)
MIC (S. aureus 101): 4 µg/mL (≈ 11.5 µM)
MIC (E. faecium 19434): 2 µg/mL (≈ 5.74 µM)
MIC (E. coli 25922): < 0.03 µg/mL
MIC (A. Baumanii OXA-51): 8 µg/mL (≈ 23 µM)
MIC (E. coli CTX-M-15): 16 µg/mL (≈ 45.9 µM)
MIC (E. coli 2906): 16 µg/mL (≈ 45.9 µM)
MIC (Klebsiella ssp KPC-3): 8 µg/mL (≈ 23 µM)
MIC (Pseudomonas ssp PER-1): 8 µg/mL (≈ 23 µM)
MIC (P. aeruginosa 1388-3-02): 16 µg/mL (≈ 45.9 µM)
MIC (P. aeruginosa 143-3-03): 4 µg/mL (≈ 11.5 µM)
MIC (S. pneumoniae 1027): 2 µg/mL (≈ 5.74 µM)
MIC (A. baumannii J2 [2]): 8 µg/mL (≈ 23 µM)
MIC [3]: 16 µg/mL (≈ 45.9 µM)
MIC (A. baumannii A390 [4]): 8 µg/mL (≈ 23 µM)
MIC (A. baumannii A472 [5]): 8 µg/mL (≈ 23 µM)
MIC (A. baumannii A473 [6]): 8 µg/mL (≈ 23 µM)
MIC ([7]; A. baumannii A14, without polymyxin B, 1st experiment, read-out: MIC without PB): 32 µg/mL (≈ 91.8 µM)
MIC ([7]; NCTC13301, A. baumannii NCTC 13301, without polymyxin B, 2nd experiment, visual reading, read-out: MIC without PB): 8 µg/mL (≈ 23 µM)
MIC ([7]; read-out: MIC range without PB 01-10-2008 n = 8, without polymyxin B, 1st experiment, 8 strains): 2 to 32 µg/mL (≈ 5.74 to 91.8 µM)
MIC ([7]; without polymyxin B, 2nd experiment, 11 strains, read-out: MIC range without PB 14-10-2008 n = 11): 4 to 16 µg/mL (≈ 11.5 to 45.9 µM)
MIC (A. baumannii J2 [8]): 8 µg/mL (≈ 23 µM)
MIC ([9]; Acinetobacter spp. H064200250 (OXA51), 2nd experiment, visual reading): 16 µg/mL (≈ 45.9 µM)
MIC [9, 19]: 16 µg/mL (≈ 45.9 µM)
MIC (A. baumannii A329): 8 µg/mL (≈ 23 µM)
MIC (A. baumannii A390 [10]; 1st experiment): 8 µg/mL (≈ 23 µM)
MIC (A. baumannii A390 [10]; 2nd experiment, visual reading): 8 µg/mL (≈ 23 µM)
MIC (A. baumannii A401): 8 µg/mL (≈ 23 µM)
MIC (A. baumannii A472 [11]): 8 µg/mL (≈ 23 µM)
MIC (A. baumannii A473 [12]; 1st experiment): 8 µg/mL (≈ 23 µM)
MIC (A. baumannii A473 [12]; 2nd experiment, visual reading): 8 µg/mL (≈ 23 µM)
MIC (A. baumannii A489): 8 µg/mL (≈ 23 µM)
MBC (A. baumannii ATCC 19606): 0.125 µg/mL (≈ 0.359 µM)
MBC ([13]; Acinetobacter spp. H064200250 (OXA51), 2nd experiment): 16 µg/mL (≈ 45.9 µM)
MBC [13, 19]: 8 µg/mL (≈ 23 µM)
MIC (E. coli IMP): < 0.008 µg/mL

Cc1c(-c2ccc(N)nc2)ccn2c(=O)c(C(=O)O)cc(C3CC3)c12 [Compound 33, 8-(6-amino-3-pyridyl)-1-cyclopropyl-9-methyl-4-oxo-quinolizine-3-carboxylic acid]
MIC [14]: 0.5 µg/mL
MIC [15]: 0.03 µg/mL
MIC [16]: 16 µg/mL
MIC [17]: 2 µg/mL
MIC [18]: 16 µg/mL

Cc1c(-c2ccc(N)nc2)ccn2c(=O)c(C(=O)[O-])cc(C3CC3)c12.[K+] [Compound 33 K salt, potassium 8-(6-amino-pyridin-3-yl)-1-cyclopropyl-9-methyl-4-oxo-4H-quinolizine-3-carboxylate]
MIC [1]: > 8 µg/mL

Cc1c(-c2ccc3[nH]ncc3c2)ccn2c(=O)c(C(=O)[O-])cc(C3CC3)c12.[K+] [Compound 35 K salt, potassium 8-(1H-indazol-5-yl)-1-cyclopropyl-9-methyl-4-oxo-4H-quinolizine-3-carboxylate]
MIC [1]: > 8 µg/mL

Source: US10155021B2, “Antimicrobial 4-oxoquinolizines” (Emergent Product Development Gaithersburg Inc., priority 2011, dated 2018)
